According to the supplement of paper PMC10307832:

Columns and labels:
Test in all cases: relative viability (nuclei count vs DMSO), 5 days (fraction); higher = more cells survive
NCI-H1975 = tested on: NCI-H1975
Method in brief: (§1)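 For relative viability, nuclei counts in treated wells were divided by those in vehicle wells. Lung cancer cell lines had been pin-tool dosed in 1536-well plates the day after seeding and cultured for 5 days, then fixed and stained in one step (final 0.05% Triton X-100, 1% formaldehyde, 1 ug/ml Hoechst) and imaged at 4×. Doses were one drug alone or a fixed anchor-drug dose plus five library-drug doses (not always all listed) in √10 steps, and values are duplicate-plate medians.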

NCI-H1755 = tested on: NCI-H1755
Method in brief: as §1

NCI-H1355 = tested on: NCI-H1355
Method in brief: as §1

NCI-H1437 = tested on: NCI-H1437
Method in brief: as §1

NCI-H441 = tested on: NCI-H441
Method in brief: as §1

EKVX = tested on: EKVX
Method in brief: as §1

NCI-H1734 = tested on: NCI-H1734
Method in brief: as §1

LOU-NH91 = tested on: LOU-NH91
Method in brief: as §1

NCI-H1395 = tested on: NCI-H1395
Method in brief: as §1

NCI-H838 = tested on: NCI-H838
Method in brief: as §1

NCI-H460 = tested on: NCI-H460
Method in brief: as §1

NCI-H2023 = tested on: NCI-H2023
Method in brief: as §1

LU99A = tested on: LU99A
Method in brief: as §1

BEN = tested on: BEN
Method in brief: as §1

NCI-H358 = tested on: NCI-H358
Method in brief: as §1

HCC-366 = tested on: HCC-366
Method in brief: as §1

NCI-H1563 = tested on: NCI-H1563
Method in brief: as §1

CAL-12T = tested on: CAL-12T
Method in brief: as §1

NCI-H1651 = tested on: NCI-H1651
Method in brief: as §1

HCC-44 = tested on: HCC-44
Method in brief: as §1

NCI-H2085 = tested on: NCI-H2085
Method in brief: as §1

NC(=O)Nc1cc(-c2cccc(F)c2)sc1C(=O)N[C@H]1CCCNC1 [AZD7762] + Cc1nc(NC(=O)N2CCC[C@H]2C(N)=O)sc1-c1ccnc(C(C)(C)C(F)(F)F)c1 [Alpelisib] (partner 2 µM) gave a relative viability (NCI-H1975; first compound 0.01 µM) of 0.678, a relative viability (NCI-H1975; first compound 0.03162 µM) of 0.585 and a relative viability (NCI-H1975; first compound 0.1 µM) of 0.579. The relative viability (NCI-H1975; first compound 0.3162 µM) was 0.436, the relative viability (NCI-H1975; first compound 1 µM) was 0.322 and the relative viability (NCI-H1755; first compound 0.01 µM) was 0.957. The relative viability (NCI-H1755; first compound 0.03162 µM) was 0.924, the relative viability (NCI-H1755; first compound 0.1 µM) was 0.999 and the relative viability (NCI-H1755; first compound 0.3162 µM) was 0.907. The relative viability (NCI-H1755; first compound 1 µM) was 0.547, the relative viability (NCI-H1355; first compound 0.01 µM) was 0.894 and the relative viability (NCI-H1355; first compound 0.03162 µM) was 0.886. The relative viability (NCI-H1355; first compound 0.1 µM) was 0.825, the relative viability (NCI-H1355; first compound 0.3162 µM) was 0.861 and the relative viability (NCI-H1355; first compound 1 µM) was 0.852. For the same molecule, the relative viability (NCI-H1437; first compound 0.01 µM) was 0.995, the relative viability (NCI-H1437; first compound 0.03162 µM) was 0.962 and the relative viability (NCI-H1437; first compound 0.1 µM) was 1. For the same molecule, the relative viability (NCI-H1437; first compound 0.3162 µM) was 1, the relative viability (NCI-H1437; first compound 1 µM) was 1 and the relative viability (NCI-H441; first compound 0.01 µM) was 1.17. It also gave a relative viability (NCI-H441; first compound 0.03162 µM) of 0.831, a relative viability (NCI-H441; first compound 0.1 µM) of 1.2 and a relative viability (NCI-H441; first compound 0.3162 µM) of 1.01. For the same molecule, the relative viability (NCI-H441; first compound 1 µM) was 1.09, the relative viability (EKVX; first compound 0.01 µM) was 0.846 and the relative viability (EKVX; first compound 0.03162 µM) was 0.845. It also gave a relative viability (EKVX; first compound 0.1 µM) of 0.805, a relative viability (EKVX; first compound 0.3162 µM) of 0.787 and a relative viability (EKVX; first compound 1 µM) of 0.468. It also gave a relative viability (NCI-H1734; first compound 0.01 µM) of 0.729, a relative viability (NCI-H1734; first compound 0.03162 µM) of 0.782 and a relative viability (NCI-H1734; first compound 0.1 µM) of 0.775. The relative viability (NCI-H1734; first compound 0.3162 µM) was 0.753, the relative viability (NCI-H1734; first compound 1 µM) was 0.646 and the relative viability (LOU-NH91; first compound 0.01 µM) was 0.731. For the same molecule, the relative viability (LOU-NH91; first compound 0.03162 µM) was 0.741, the relative viability (LOU-NH91; first compound 0.1 µM) was 0.645 and the relative viability (LOU-NH91; first compound 0.3162 µM) was 0.612. It also gave a relative viability (LOU-NH91; first compound 1 µM) of 0.478, a relative viability (NCI-H1395; first compound 0.01 µM) of 1.2 and a relative viability (NCI-H1395; first compound 0.03162 µM) of 1.1. It also gave a relative viability (NCI-H1395; first compound 0.1 µM) of 1.16, a relative viability (NCI-H1395; first compound 0.3162 µM) of 0.649 and a relative viability (NCI-H1395; first compound 1 µM) of 0.436. It also gave a relative viability (NCI-H838; first compound 0.01 µM) of 1, a relative viability (NCI-H838; first compound 0.03162 µM) of 1.01 and a relative viability (NCI-H838; first compound 0.1 µM) of 0.871. It also gave a relative viability (NCI-H838; first compound 0.3162 µM) of 0.959, a relative viability (NCI-H838; first compound 1 µM) of 0.616 and a relative viability (NCI-H460; first compound 0.01 µM) of 0.604. It also gave a relative viability (NCI-H460; first compound 0.03162 µM) of 0.498, a relative viability (NCI-H460; first compound 0.1 µM) of 0.54 and a relative viability (NCI-H460; first compound 0.3162 µM) of 0.293. It also gave a relative viability (NCI-H460; first compound 1 µM) of 0.0196, a relative viability (NCI-H2023; first compound 0.01 µM) of 0.651 and a relative viability (NCI-H2023; first compound 0.03162 µM) of 0.608. It also gave a relative viability (NCI-H2023; first compound 0.1 µM) of 0.436, a relative viability (NCI-H2023; first compound 0.3162 µM) of 0.328 and a relative viability (NCI-H2023; first compound 1 µM) of 0.108. For the same molecule, the relative viability (LU99A; first compound 0.01 µM) was 0.575, the relative viability (LU99A; first compound 0.03162 µM) was 0.568 and the relative viability (LU99A; first compound 0.1 µM) was 0.543. It also gave a relative viability (LU99A; first compound 0.3162 µM) of 0.514, a relative viability (LU99A; first compound 1 µM) of 0.329 and a relative viability (BEN; first compound 0.01 µM) of 1.21. The relative viability (BEN; first compound 0.03162 µM) was 0.992, the relative viability (BEN; first compound 0.1 µM) was 0.883 and the relative viability (BEN; first compound 0.3162 µM) was 1.06. The relative viability (BEN; first compound 1 µM) was 0.845, the relative viability (NCI-H358; first compound 0.01 µM) was 0.819 and the relative viability (NCI-H358; first compound 0.03162 µM) was 0.964. For the same molecule, the relative viability (NCI-H358; first compound 0.1 µM) was 0.837, the relative viability (NCI-H358; first compound 0.3162 µM) was 0.629 and the relative viability (NCI-H358; first compound 1 µM) was 0.33. The relative viability (HCC-366; first compound 0.01 µM) was 0.45, the relative viability (HCC-366; first compound 0.03162 µM) was 0.521 and the relative viability (HCC-366; first compound 0.1 µM) was 0.229. The relative viability (HCC-366; first compound 0.3162 µM) was 0.189, the relative viability (HCC-366; first compound 1 µM) was 0.134 and the relative viability (NCI-H1563; first compound 0.01 µM) was 1.01. The relative viability (NCI-H1563; first compound 0.03162 µM) was 0.918, the relative viability (NCI-H1563; first compound 0.1 µM) was 0.978 and the relative viability (NCI-H1563; first compound 0.3162 µM) was 0.943. For the same molecule, the relative viability (NCI-H1563; first compound 1 µM) was 0.76, the relative viability (CAL-12T; first compound 0.01 µM) was 1.3 and the relative viability (CAL-12T; first compound 0.03162 µM) was 1.18. It also gave a relative viability (CAL-12T; first compound 0.1 µM) of 1.24, a relative viability (CAL-12T; first compound 0.3162 µM) of 0.955 and a relative viability (CAL-12T; first compound 1 µM) of 0.155. For the same molecule, the relative viability (NCI-H1651; first compound 0.01 µM) was 0.918, the relative viability (NCI-H1651; first compound 0.03162 µM) was 0.849 and the relative viability (NCI-H1651; first compound 0.1 µM) was 0.927. For the same molecule, the relative viability (NCI-H1651; first compound 0.3162 µM) was 0.753, the relative viability (NCI-H1651; first compound 1 µM) was 0.33 and the relative viability (HCC-44; first compound 0.01 µM) was 0.818. For the same molecule, the relative viability (HCC-44; first compound 0.03162 µM) was 0.751, the relative viability (HCC-44; first compound 0.1 µM) was 0.831 and the relative viability (HCC-44; first compound 0.3162 µM) was 0.755. For the same molecule, the relative viability (HCC-44; first compound 1 µM) was 0.952, the relative viability (NCI-H2085; first compound 0.01 µM) was 1.06 and the relative viability (NCI-H2085; first compound 0.03162 µM) was 0.928. It also gave a relative viability (NCI-H2085; first compound 0.1 µM) of 1.1, a relative viability (NCI-H2085; first compound 0.3162 µM) of 1.06 and a relative viability (NCI-H2085; first compound 1 µM) of 0.782.
